Laboratory results from ChEMBL document CHEMBL1687815, “In vivo selection of a missense mutation in adeR and conversion of the novel blaOXA-164 gene into blaOXA-58 in carbapenem-resistant Acinetobacter baumannii isolates from a hospitalized patient” (2010).
The source made the active and inactive calls.

Key:
Acinetobacter baumannii [1] = assay: Antimicrobial activity against Acinetobacter baumannii isolate J expressing beta-lactamase OXA-58 isolated from bedsore by vitek 2 system
Acinetobacter baumannii [2] = assay: Antimicrobial activity against Acinetobacter baumannii isolate F expressing beta-lactamase OXA-164 isolated from tracheostoma of patient by vitek 2 system
Acinetobacter baumannii [3] = assay: Antimicrobial activity against Acinetobacter baumannii isolate K expressing beta-lactamase OXA-58 isolated from blood culture of patient by vitek 2 system
Acinetobacter baumannii [4] = assay: Antimicrobial activity against Acinetobacter baumannii isolate G expressing beta-lactamase OXA-58 isolated from tracheal secretion of patient by vitek 2 system
Acinetobacter baumannii [5] = assay: Antimicrobial activity against Acinetobacter baumannii isolate H expressing beta-lactamase OXA-58 isolated from tracheal secretion of patient by vitek 2 system
Acinetobacter baumannii [6] = assay: Antimicrobial activity against Acinetobacter baumannii isolate I expressing beta-lactamase OXA-58 isolated from tracheal secretion of patient by vitek 2 system
Acinetobacter baumannii [7] = assay: Antimicrobial activity against Acinetobacter baumannii isolate L expressing beta-lactamase OXA-58 isolated from tracheal secretion of patient by vitek 2 system
Acinetobacter baumannii [8] = assay: Antimicrobial activity against Acinetobacter baumannii isolate M expressing beta-lactamase OXA-58 isolated from tracheal secretion of patient by vitek 2 system
Acinetobacter baumannii [9] = assay: Antimicrobial activity against Acinetobacter baumannii isolate A expressing beta-lactamase OXA-164 isolated from tracheal secretion of patient by vitek 2 system
Acinetobacter baumannii [10] = assay: Antimicrobial activity against Acinetobacter baumannii isolate B expressing beta-lactamase OXA-164 isolated from tracheal secretion of patient by vitek 2 system
Acinetobacter baumannii [11] = assay: Antimicrobial activity against Acinetobacter baumannii isolate C expressing beta-lactamase OXA-164 isolated from tracheal secretion of patient by vitek 2 system
Acinetobacter baumannii [12] = assay: Antimicrobial activity against Acinetobacter baumannii isolate D expressing beta-lactamase OXA-164 isolated from tracheal secretion of patient by vitek 2 system
Acinetobacter baumannii [13] = assay: Antimicrobial activity against Acinetobacter baumannii isolate E expressing beta-lactamase OXA-164 isolated from tracheal secretion of patient by vitek 2 system

Measured: MIC

CC(C)(O/N=C(\C(=O)N[C@@H]1C(=O)N2C(C(=O)[O-])=C(C[n+]3ccccc3)CS[C@H]12)c1csc(N)n1)C(=O)O
inactive: all assays above

CO/N=C(\C(=O)N[C@@H]1C(=O)N2C(C(=O)O)=C(COC(C)=O)CS[C@H]12)c1csc(N)n1
inactive: all assays above

CO/N=C(\C(=O)N[C@@H]1C(=O)N2C(C(=O)[O-])=C(C[N+]3(C)CCCC3)CS[C@H]12)c1csc(N)n1
inactive: all assays above

CO[C@@]1(NC(=O)Cc2cccs2)C(=O)N2C(C(=O)O)=C(COC(N)=O)CS[C@@H]21
inactive: all assays above

COc1c(N2C[C@@H]3CCCN[C@@H]3C2)c(F)cc2c(=O)c(C(=O)O)cn(C3CC3)c12
inactive: all assays above

C[C@@H]1O[C@@H]1P(=O)(O)O
inactive: all assays above
